Test results as given in patent publication US20220002396A1, “METHODS OF TREATING CANCER WITH FARNESYLTRANSFERASE INHIBITORS” (Kura Oncology, Inc., priority 2018, published 2022).

Columns and labels:
Type in all cases: in vivo, human
previously untreated AML = assay: Tipifarnib monotherapy in elderly patients with previously untreated AML (CTEP-20), outcome by IGF1/CXCL12 expression
Description: (§1) Gene expression profile (GEP) data generated using RNA-Seq and the Affymetrix U133A gene-chip of tumor samples from 71 patients enrolled in tipifarnib trials (CTEP-20, KO-TIP-002, KO-TIP-004) were analyzed with respect to study outcomes and complemented with analyses of mRNA expression in data sets from the cBioportal for Cancer Genomics. Clinical trial information: NCT00027872, NCT02464228, NCT02807272.
Data from a study investigating tipifarnib monotherapy in elderly patients with previously untreated AML (CTEP-20) was examined in detail to determine the effect of the expression of CXCL12 and IGF1 on the response of the patients to tipifarnib.
The effect of IGF1/CXCL12 co-expression on patient outcome in tipifarnib was examined. In previously untreated AML, 3 subsets of patients were identified with respect to IGF1/CXCL12 expression (FIG. 2A). These subsets were 1) high IGF1, high CXCL12 (left boxplots), 2) intermediate IGF1, low CXCL12 (middle boxplots), and 3) low IGF1, variable CXCL12, (right boxplots).
When CXCL12 was at low levels and IGF1 was at intermediate levels, low CXCL12 levels translates to disease progression with 1 CR and 8 with progressive disease (PD) as outcome (FIG. 2C). When the IGF1 levels were low, CXCL12 had variable levels and six patients out of 15 experienced CR. […] Receiver-Operator-Characterisitics (ROC) curves for prediction of a CR in these patients confirmed that higher CXCL12 and lower IGF1 levels were predictive of complete responses in the AML patient population (FIG. 2E).

breast cancer = assay: Phase II study of tipifarnib in breast cancer patients (Study GBR-1)
Description: Biomarkers in breast cancer were also examined for their relationship to CXCL12/IGF1 expression and to the activity of tipifarnib when administered to patients. A phase II study was performed with 76 patients treated with tipifarnib (Study GBR-1). Patients were tested for estrogen-receptor positivity (ER+) or negativity (ER−), progesterone receptor positivity (PGR+) or negativity (PGR−), and the presence or absence of TP53 mutation. Overall response rate in the study was 12%. Biomarker data was available for 41 patients.

CMML = assay: Tipifarnib-treated CMML subjects with pre-treatment BM gene expression data; details: in 17 tipifarnib-treated CMML subjects
Description: as §1
Four objective responses and 1 tumor lysis syndrome were reported in 17 tipifarnib-treated CMML subjects with available pre-treatment BM gene expression data. CXCL12 expression (p=0.07) and the CXCL12/CXCR4 ratio (p=0.03) were predictive of those events while IGF1 expression levels were barely detectable in these patients.

nodal PTCL = assay: Tipifarnib monotherapy in nodal PTCL patients with pre-treatment GEP data; details: 13 nodal PTCL patients
Description: as §1
The effect of CXCL12 and IGF1 was also investigated in 13 nodal PTCL patients with pre-treatment GEP data who received tipifarnib monotherapy. […] Adjusting the IGFBP7 expression to the level of IGF1R expression also identified those patients as responders to therapy.

[1] = tested on: advanced pancreatic adenocarcinoma; assay: Randomized, double-blind, placebo-controlled study of gemcitabine+tipifarnib versus gemcitabine+placebo (Study INT-17 / INT-11)
Description: In a randomized, double-blind, placebo-controlled study of gemcitabine+tipifarnib versus gemcitabine+placebo in patients with advanced pancreatic adenocarcinoma previously untreated with systemic therapy, tipifarnib (R115777) was administered at a dosage amount of 200 mg twice a day, orally, and continuously (Study INT-17). Gemcitabine was administered intravenously at a dosage amount of 1,000 mg/m(2) weekly x 7 for 8 weeks, then weekly x 3 every 4 weeks. 686 patients were enrolled. The median overall survival for the experimental arm was 193 v 182 days for the control arm (P=0.75).

[2] = subset intermediate IGF1, low CXCL12

tumor lysis syndrome (CMML) | Neutropenia grade > or =3 ([1]; all patients, per arm) [%] | thrombocytopenia grade > or =3 ([1]; all patients, per arm) [%] | Molecule | complete response (CR) (previously untreated AML; subset high IGF1, high CXCL12, out of 10 subjects) [patients] | complete response (CR) (previously untreated AML; [2]) | progressive disease (PD) as outcome (previously untreated AML; [2]) | Overall response rate (breast cancer; 76 patients treated) [%] | objective response rate (breast cancer; four patients with PGR(+) and ER(−) tumors) [%] | RESPONSE (breast cancer; one line per patient, PGR(+) ER(−) population) | objective response rate (breast cancer; seven patients with PGR(+) and wild type TP53 tumors) [%] | partial responses (PR) (nodal PTCL) | median overall survival ([1]; 686 patients enrolled, tipifarnib 200 mg twice a day orally, gemcitabine 1,000 mg/m(2) IV, P=0.75) [days] | survival of patients not reporting versus reporting abdominal pain at study entry, within arm ([1]; FIG. 5B)
1 | – | – | Cn1cncc1[C@@](N)(c1ccc(Cl)cc1)c1ccc2c(c1)c(-c1cccc(Cl)c1)cc(=O)n2C [tipifarnib] | 2 | 1 | 8 | 12 | 75 | NO RESPONSE | 57 | 2 | – | –
– | 30 | 12 | gemcitabine [gemcitabine+placebo] | – | – | – | – | – | – | – | – | 182 | not significantly different
